Patent US12527801B2, “Cell activator of animal cell” (Vitamin C60 BioResearch Corporation, priority 2019, dated 2026)

Key:
[1] = system: reconstructed human epidermis (RhE) model (SkinEthic-RHE); experiment: Skin irritation test, reconstructed human epidermis model, MTT cell viability; format: cell-based
Experimental: A skin irritation test was performed in accordance with OECD Test Guidelines (No. 439), and SKINETHIC SKIN IRRITATION TEST, which is a TEST METHOD FOR THE PREDICTION OF ACUTE SKIN IRRITATION OF CHEMICALS and is a protocol published by the European Centre for the Validation of Alternative Methods (ECVAM). […] The cell viability of the RhE model was measured by an MTT method. In the MTT method, the cell viability is measured by quantitatively determining blue formazan utilizing a property that MTT (3-(4,5-dimethylthiazol-2-yl)-2,5-diphenyltetrazolium bromide, thiazolyl blue), which is a vital staining dye, is reduced to blue formazan by enzymatic reaction of viable cells. […]
After exposing the test sample for 42 minutes, the test sample was immediately removed from the epidermis model by a washing operation and cultured in fresh growth medium for an additional 42 hours. […] Thereafter, the epidermis model was immersed in isopropanol for 2 hours to extract blue formazan in the epidermis model, and the absorbance at 570 nm of the extraction liquid was measured with a microplate reader. The same treatment was performed on the epidermis model exposed to the negative control and the positive control to measure the absorbance. […]

[2] = system: Normal human epidermal keratinocytes; experiment: Microarray test of gene expression (DNA Chip Genopal); format: cell-based; details: for ATP5F1 (internal standard) gene expression, Average / CDH1 (E-cadherin) gene expression, Average / CLDN1 (claudin 1) gene expression, Average / DSC1 (desmocollin 1) gene expression, Average / DSG1 (desmoglein 1) gene expression, Average / EDN1 (endothelin 1) gene expression, Average / FN1 (fibronectin) gene expression, Average / GUSB (internal standard) gene expression, Average / HAS3 (hyaluronan synthase) gene expression, Average / IVL (involucrin) gene expression, Average / KLK5 (kallikrein 5) gene expression, Average / KLK7 (kallikrein 7) gene expression, Average / KRT1 (keratin 1) gene expression, Average / KRT10 (keratin 10) gene expression, Average / PPIA (Cyclophilin) (internal standard) gene expression, Average / PTGES (prostaglandin E synthetase) gene expression, Average / PTGS2 (COX-2) (cyclooxygenase 2) gene expression, Average / RPLPO (internal standard) gene expression, Average / SPINK5 (LEKTI1) (serine protease inhibitor) gene expression, Average / SPRR1B (cornified envelope constituent protein) gene expression, Average / TGM1 (transglutaminase 1) gene expression, Average: 24 h, ratio, control as 1
Experimental: Normal human epidermal keratinocytes were seeded on 6-well plates at the cell density of 1.5×10^5 cells/well using a HuMedia-KG2 medium. After culturing for 24 hours, the medium was replaced with 3 mL of a HuMedia-KB2 medium comprising AOH at the concentration of 0, 30, 100, and 300 μg/mL. After the replacement, culturing was performed for 24 hours, and the cells were immersed in a QIAzol reagent and lysed. RNA purified using an miRNeasy Mini Kit (QIAGEN) was recovered from the lysate, and a DNA microarray was performed using an mRNA expression analysis chip (DNA Chip Genopal (registered trademark)). The obtained results were analyzed to represent the expression of various genes as a ratio with a correction value of the control as 1, and a significant difference test was performed using the Student's t-test (significance level p of 5%).
In Table 2, it can be determined that when the value is larger than 1, gene expression is increased, and when the p value is smaller than 0.05, there is a significant change with respect to the control (indicated by * in the table). AOH treatment varied the expression of some genes in a concentration-dependent manner.

[3] = In vitro skin sensitization test (DPRA method) (OECD TG442C); format: biochemical
[4] = In vitro phototoxicity test (OECD TG432); format: cell-based
[5] = Human patch test; details: in vivo
[6] = AOH treatment, concentration not given

O=c1[nH]c2nn[nH]c(=O)c2[nH]1 [AOH, 3H-imidazo[4,5-d][1,2,3]triazine-4,6(5H,7H)-dione]
cell viability of the skin model ([1]; 42 min exposure, 42 h post-culture, MTT, PBS (−) negative control as 100%): 100%
skin irritation determination ([1]; RhE model, OECD TG 439): non-irritating
ATP5F1 (internal standard) gene expression, Average ([2]; 30 μg/mL): 1.00
CDH1 (E-cadherin) gene expression, Average ([2]; 30 μg/mL): 1.11
CLDN1 (claudin 1) gene expression, Average ([2]; 30 μg/mL): 1.19
DSC1 (desmocollin 1) gene expression, Average ([2]; 30 μg/mL): 1.26
DSG1 (desmoglein 1) gene expression, Average ([2]; 30 μg/mL): 1.09
EDN1 (endothelin 1) gene expression, Average ([2]; 30 μg/mL): 1.24
FN1 (fibronectin) gene expression, Average ([2]; 30 μg/mL): 1.12
GUSB (internal standard) gene expression, Average ([2]; 30 μg/mL): 0.97
HAS3 (hyaluronan synthase) gene expression, Average ([2]; 30 μg/mL): 1.09
IVL (involucrin) gene expression, Average ([2]; 30 μg/mL): 1.35
KLK5 (kallikrein 5) gene expression, Average ([2]; 30 μg/mL): 1.11
KLK7 (kallikrein 7) gene expression, Average ([2]; 30 μg/mL): 1.12
KRT1 (keratin 1) gene expression, Average ([2]; 30 μg/mL): 1.46
KRT10 (keratin 10) gene expression, Average ([2]; 30 μg/mL): 1.19
PPIA (Cyclophilin) (internal standard) gene expression, Average ([2]; 30 μg/mL): 0.98
PTGES (prostaglandin E synthetase) gene expression, Average ([2]; 30 μg/mL): 0.77
PTGS2 (COX-2) (cyclooxygenase 2) gene expression, Average ([2]; 30 μg/mL): 0.90
RPLPO (internal standard) gene expression, Average ([2]; 30 μg/mL): 1.03
SPINK5 (LEKTI1) (serine protease inhibitor) gene expression, Average ([2]; 30 μg/mL): 1.15
SPRR1B (cornified envelope constituent protein) gene expression, Average ([2]; 30 μg/mL): 1.27
TGM1 (transglutaminase 1) gene expression, Average ([2]; 30 μg/mL): 1.16
ATP5F1 (internal standard) gene expression, Average ([2]; 100 μg/mL): 1.02
CDH1 (E-cadherin) gene expression, Average ([2]; 100 μg/mL): 1.09
CLDN1 (claudin 1) gene expression, Average ([2]; 100 μg/mL): 1.49
DSC1 (desmocollin 1) gene expression, Average ([2]; 100 μg/mL): 1.28
DSG1 (desmoglein 1) gene expression, Average ([2]; 100 μg/mL): 1.13
EDN1 (endothelin 1) gene expression, Average ([2]; 100 μg/mL): 1.39
FN1 (fibronectin) gene expression, Average ([2]; 100 μg/mL): 1.15
GUSB (internal standard) gene expression, Average ([2]; 100 μg/mL): 1.00
HAS3 (hyaluronan synthase) gene expression, Average ([2]; 100 μg/mL): 1.27
IVL (involucrin) gene expression, Average ([2]; 100 μg/mL): 1.49
KLK5 (kallikrein 5) gene expression, Average ([2]; 100 μg/mL): 1.16
KLK7 (kallikrein 7) gene expression, Average ([2]; 100 μg/mL): 1.24
KRT1 (keratin 1) gene expression, Average ([2]; 100 μg/mL): 1.60
KRT10 (keratin 10) gene expression, Average ([2]; 100 μg/mL): 1.33
PPIA (Cyclophilin) (internal standard) gene expression, Average ([2]; 100 μg/mL): 0.96
PTGES (prostaglandin E synthetase) gene expression, Average ([2]; 100 μg/mL): 0.79
PTGS2 (COX-2) (cyclooxygenase 2) gene expression, Average ([2]; 100 μg/mL): 0.93
RPLPO (internal standard) gene expression, Average ([2]; 100 μg/mL): 1.06
SPINK5 (LEKTI1) (serine protease inhibitor) gene expression, Average ([2]; 100 μg/mL): 1.28
SPRR1B (cornified envelope constituent protein) gene expression, Average ([2]; 100 μg/mL): 1.42
TGM1 (transglutaminase 1) gene expression, Average ([2]; 100 μg/mL): 1.29
ATP5F1 (internal standard) gene expression, Average ([2]; 300 μg/mL): 1.01
CDH1 (E-cadherin) gene expression, Average ([2]; 300 μg/mL): 1.16
CLDN1 (claudin 1) gene expression, Average ([2]; 300 μg/mL): 1.43
DSC1 (desmocollin 1) gene expression, Average ([2]; 300 μg/mL): 1.59
DSG1 (desmoglein 1) gene expression, Average ([2]; 300 μg/mL): 1.15
EDN1 (endothelin 1) gene expression, Average ([2]; 300 μg/mL): 1.75
FN1 (fibronectin) gene expression, Average ([2]; 300 μg/mL): 1.22
GUSB (internal standard) gene expression, Average ([2]; 300 μg/mL): 0.97
HAS3 (hyaluronan synthase) gene expression, Average ([2]; 300 μg/mL): 1.60
IVL (involucrin) gene expression, Average ([2]; 300 μg/mL): 1.75
KLK5 (kallikrein 5) gene expression, Average ([2]; 300 μg/mL): 1.24
KLK7 (kallikrein 7) gene expression, Average ([2]; 300 μg/mL): 1.17
KRT1 (keratin 1) gene expression, Average ([2]; 300 μg/mL): 2.07
KRT10 (keratin 10) gene expression, Average ([2]; 300 μg/mL): 1.44
PPIA (Cyclophilin) (internal standard) gene expression, Average ([2]; 300 μg/mL): 0.99
PTGES (prostaglandin E synthetase) gene expression, Average ([2]; 300 μg/mL): 0.56
PTGS2 (COX-2) (cyclooxygenase 2) gene expression, Average ([2]; 300 μg/mL): 0.79
RPLPO (internal standard) gene expression, Average ([2]; 300 μg/mL): 1.08
SPINK5 (LEKTI1) (serine protease inhibitor) gene expression, Average ([2]; 300 μg/mL): 1.38
SPRR1B (cornified envelope constituent protein) gene expression, Average ([2]; 300 μg/mL): 1.60
TGM1 (transglutaminase 1) gene expression, Average ([2]; 300 μg/mL): 1.57
gene expression of E-cadherin (CDH1), change in words [2, 6]: significant increase
gene expression of SPRR1B, change in words [2, 6]: significant increase
gene expression of claudin 1 (CLDN1), change in words [2, 6]: significant increase
gene expression of cyclooxygenase (PTGS2), change in words [2, 6]: significant decrease
gene expression of desmocollin 1 (DSC1), change in words [2, 6]: significant increase
gene expression of desmoglein 1 (DSG1), change in words [2, 6]: significant increase
gene expression of endothelin 1 (EDN1), change in words [2, 6]: significant increase
gene expression of fibronectin (FN1), change in words [2, 6]: slight increase
gene expression of hyaluronan synthase (HAS3), change in words [2, 6]: significant increase
gene expression of involucrin (IVL), change in words [2, 6]: significant increase
gene expression of kallikrein 5 (KLK5), change in words [2, 6]: significant increase
gene expression of kallikrein 7 (KLK7), change in words [2, 6]: significant increase
gene expression of keratin 1 (KRT1), change in words [2, 6]: significant increase
gene expression of keratin 10 (KRT10), change in words [2, 6]: significant increase
gene expression of prostaglandin E synthetase (PTGES), change in words [2, 6]: significant decrease
gene expression of serine protease inhibitor (SPIMK5), change in words [2, 6]: significant increase
gene expression of transglutaminase 1 (TGM1), change in words [2, 6]: significant increase
toxicity in in vitro skin sensitization test (DPRA method) [3]: toxicity was not recognized
toxicity in in vitro phototoxicity test [4]: toxicity was not recognized
toxicity in human patch test [5]: toxicity was not recognized
